Earlier results in patent US8868172B2, “Methods and systems for recommending an appropriate action to a patient for managing epilepsy and other neurological disorders” (Cyberonics, Inc., priority 2005, dated 2014).
Where two headings read alike, the source gives them in different places.

Columns and labels:
[1] = system: GABA/benzodiazepine receptor ionophore complex; details: allosteric, no changes in chloride flux
rat hippocampal slices = details: 10-30 μg/mL
[2] = system: dopaminergic and serotonergic neurotransmission; details: in vivo microdialysis
sodium channels = details: in vitro
[3] = system: cultured mouse spinal cord neurons; details: 10-30 μg/mL
T-type Ca^2+ currents = details: in vitro
[4] = for plasma concentration average per daily dose of 1 mg/kg: long term therapy
[5] = not given; remark: listed apart in the source
[6] = per daily dose of 1 mg/kg of the drug itself

Q: Which “binding to the GABA/benzodiazepine receptor ionophore complex” value [1] does the source give for `NS(=O)(=O)Cc1noc2ccccc12` [zonisamide, 1,2-benzisoxazole-3-methanesulfonamide] here?
A: Its value is “binds”.

Q: What about the “carbonic anhydrase inhibiting activity” value (carbonic anhydrase) of the same molecule?
A: Its value is “weak”.

Q: And the “effect on neuronal or glial uptake of [3H]-GABA” value (rat hippocampal slices)?
A: Its value is “without affecting”.

Q: What about the “effect on dopaminergic and serotonergic neurotransmission” value [2] of the same molecule?
A: Its value is “facilitates”.

Q: And the “effect on sodium channels” value (sodium channels)?
A: The value was “blocks”.

Q: What about the “effect on postsynaptic GABA or glutamate responses” value [3] of the same molecule?
A: The value was “without affecting”.

Q: What about the “effect on synaptically-driven electrical activity” value [3] of the same molecule?
A: Its value is “suppresses”.

Q: And the “effect on voltage-dependent, transient inward currents (T-type Ca2+ currents)” value (T-type Ca^2+ currents)?
A: The value was “reduces”.

Q: Which results are given for `CCC1(c2ccccc2)C(=O)NC(=O)NC1=O` [phenobarbital]?
A: plasma concentration of phenobarbital per daily dose of 1 mg/kg of primidone ([4]; long term therapy with primidone): about 2 μg/ml; plasma concentration average per daily dose of 1 mg/kg ([4]; adults, per daily dose of 1 mg/kg): about 10 μg/ml

Q: With `O=C1NC(=O)C(c2ccccc2)(c2ccccc2)N1` [Phenyloin, diphenylhydantoin] as the molecule, how does the “concentrations at which chronic control of seizures is generally obtained” value read?
A: The value was “above 10 μg/ml”.

Q: What about the “concentrations at which toxic effects such as nystagmus develop” value [5] of the same molecule?
A: Its value is “around 20 μg/ml”.

Q: With `CCC1(C)CC(=O)NC1=O` (centres unmarked) [ethosuximide, Ethosuximide] as the molecule, how does the “plasma concentration average per daily dose of 1 mg/kg” value [4, 6] read?
A: The value was “about 2 μg/ml”.

Q: With `CCC1(c2ccccc2)C(=O)NCNC1=O` [primidone, Primidone] as the molecule, how does the “plasma concentration average per daily dose of 1 mg/kg” value [4, 6] read?
A: The value was “about 1 μg/ml”.
